{
  "source": "paper PMC9090415",
  "about": "“Discovery of small molecule inhibitors of Plasmodium falciparum apicoplast DNA polymerase” (Journal of Enzyme Inhibition and Medicinal Chemistry, 2022)",
  "molecular_target": "P. falciparum apicoplast DNA polymerase (Pf-apPOL) (Plasmodium falciparum, UniProt Q8ILY1)",
  "sequence (Q8ILY1 entry or part of it)": "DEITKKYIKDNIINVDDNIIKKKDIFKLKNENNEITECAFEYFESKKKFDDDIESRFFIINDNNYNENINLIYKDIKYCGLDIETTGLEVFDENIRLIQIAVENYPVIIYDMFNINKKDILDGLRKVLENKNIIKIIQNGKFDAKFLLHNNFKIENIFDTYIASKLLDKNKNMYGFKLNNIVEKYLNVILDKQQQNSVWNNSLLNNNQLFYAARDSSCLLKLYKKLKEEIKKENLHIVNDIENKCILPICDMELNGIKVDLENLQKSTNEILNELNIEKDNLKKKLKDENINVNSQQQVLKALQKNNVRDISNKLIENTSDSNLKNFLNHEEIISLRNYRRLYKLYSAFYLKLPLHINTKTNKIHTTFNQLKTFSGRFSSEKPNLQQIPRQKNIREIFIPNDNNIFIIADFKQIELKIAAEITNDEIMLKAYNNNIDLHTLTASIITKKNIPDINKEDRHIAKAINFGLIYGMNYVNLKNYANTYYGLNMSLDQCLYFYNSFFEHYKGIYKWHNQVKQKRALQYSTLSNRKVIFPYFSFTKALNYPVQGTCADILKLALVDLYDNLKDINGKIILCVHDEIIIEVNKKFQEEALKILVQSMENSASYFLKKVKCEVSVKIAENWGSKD",
  "assay": "Fluorescence-based high-throughput DNA polymerase assay (molecular beacon), primary screen and dose-response",
  "assay_type": "biochemical",
  "conditions": "for DNA Pol: 90 min, 10 µM",
  "experimental": "The HT assay employs a molecular beacon, a stem-loop DNA template with a Cy3 dye and the Black Hole Quencher on the 3′ and 5′ ends of the DNA, respectively. Pf-apPOL concentration is based on a calculated absorptivity of ε280 = 56750 M^−1 cm^−1. Reactions were carried out at 25 °C, using Corning 3575 […] (well-volume, 20 µL). Assays testing for compound inhibition composed of reaction buffer (pH 7.9 in 50 mM potassium acetate, 20 mM Tris-acetate and 10 mM magnesium acetate), Pf-apPOL (20 nM), DNA substrate (20 nM), dNTPs (6 µM), and compound (10 µM in DMSO). The DNA and nucleotide substrates (dNTPs) were at concentrations of 20 nM and 6 µM, respectively, in the assay. Pf-apPOL was incubated in the reaction buffer with dNTPs and the compound of interest (10 µM, in the assay) at 25 °C for 10 min. The DNA substrate was then added and the reaction was allowed to proceed for 90 min at 25 °C.\nEach assay plate contained 16 negative controls (no Pf-apPOL, DMSO present) and 16 positive controls (Pf-apPOL present, no DMSO). The fluorescence of each well was determined using a BioTek Synergy Neo fluorescence plate reader using excitation and emission wavelengths of 555 and 570 nm, respectively.\nIn the above, Min is the average of fluorescence emission of the negative controls (substrate only), Max the average fluorescence emission from the positive controls (enzyme + substrate), and Test the emission from the assays in the presence of compounds (enzyme + compound + substrates). […] […] The IC50 of each compound was determined using Equation (2): (2) IC50= Vmax/(1+ (I/IC50)^n)\nIn the above, n measures cooperativity, with n > 1 indicating synergistic binding of more than a single molecule of the compound.\nTo identify apPOL inhibitors we utilised our previously developed high-throughput DNA polymerase assay. The HT assay is based on a molecular beacon DNA template that forms a stem-loop with a Cy3 dye and the Black Hole Quencher on the 3′ and 5′ ends of the DNA, respectively. DNA polymerase activity extends an annealed primer through the stem region, displacing the fluorophore from the quencher, thereby increasing its fluorescence (Figure 1(A)). The assay accurately recapitulates the kinetic behaviour of apPOL, as measured through more conventional low-throughput gel-based assays. The Z′ factor for the assay described here was 0.9 across all plates (data not shown).\nFigure 1. High-throughput screening. (A) The fluorescent-based DNA polymerase assay used to screen the compound libraries. The DNA template strand is a hairpin loop with a primer annealed to the loop. The 3’ end of the primer is 11 bases away from the 6 bp duplex. Strand displacement activity of the DNA polymerase separates the Cy3 dye from the Black hole quencher leading to an increase in fluorescent signal. (B) The high-throughput assay workflow. The DNA polymerase is incubated with […] compound for 10 min prior to addition of the hairpin substrate. The reaction is quenched at 3 different time points and the fluorescent signal is measured and % inhibition is determined using the provided equation.",
  "data": [
    {"smiles": "O=C(Nc1ncc([N+](=O)[O-])s1)c1ccc2c(c1)C(=O)N(N1C(=O)c3ccccc3C1=O)C2=O", "note": "[KU0026378]", "values": [
      {"measurement": "DNA Pol", "setting": "'DNA Pol', screening value, unit not given", "result": 40},
      {"measurement": "% inhibition Apo pol 10'", "setting": "DRC-1, concentration 2.5", "result": 7.75, "unit": "%"},
      {"measurement": "% inhibition Apo pol 10'", "setting": "DRC-1, concentration 5", "result": 18.061, "unit": "%"},
      {"measurement": "% inhibition Apo pol 10'", "setting": "DRC-1, concentration 10", "result": 26.4428, "unit": "%"},
      {"measurement": "% inhibition Apo pol 10'", "setting": "DRC-1, concentration 20", "result": 47.1491, "unit": "%"},
      {"measurement": "% inhibition Apo pol 10'", "setting": "DRC-1, concentration 40", "result": 69.5136, "unit": "%"},
      {"measurement": "% inhibition Apo pol 10'", "setting": "DRC-1, concentration 80", "result": 81.7904, "unit": "%"},
      {"measurement": "% inhibition Apol 90'", "setting": "DRC-1, 90', concentration 2.5", "result": 0.8654, "unit": "%"},
      {"measurement": "% inhibition Apol 90'", "setting": "DRC-1, 90', concentration 5", "result": 10.2523, "unit": "%"},
      {"measurement": "% inhibition Apol 90'", "setting": "DRC-1, 90', concentration 10", "result": 17.1111, "unit": "%"},
      {"measurement": "% inhibition Apol 90'", "setting": "DRC-1, 90', concentration 20", "result": 31.377, "unit": "%"},
      {"measurement": "% inhibition Apol 90'", "setting": "DRC-1, 90', concentration 40", "result": 49.9666, "unit": "%"},
      {"measurement": "% inhibition Apol 90'", "setting": "DRC-1, 90', concentration 80", "result": 63.8905, "unit": "%"},
      {"measurement": "% inhibition apPOL 180'", "setting": "DRC-1, 180', concentration 2.5", "result": -2.09, "unit": "%"},
      {"measurement": "% inhibition apPOL 180'", "setting": "DRC-1, 180', concentration 5", "result": 6.201, "unit": "%"},
      {"measurement": "% inhibition apPOL 180'", "setting": "DRC-1, 180', concentration 10", "result": 13.1954, "unit": "%"},
      {"measurement": "% inhibition apPOL 180'", "setting": "DRC-1, 180', concentration 20", "result": 24.5599, "unit": "%"},
      {"measurement": "% inhibition apPOL 180'", "setting": "DRC-1, 180', concentration 40", "result": 40.1737, "unit": "%"},
      {"measurement": "% inhibition apPOL 180'", "setting": "DRC-1, 180', concentration 80", "result": 53.133, "unit": "%"},
      {"measurement": "% inhibition Apo pol 5'", "setting": "DRC-2, 5', concentration 2.5", "result": 8, "unit": "%"},
      {"measurement": "% inhibition Apo pol 5'", "setting": "DRC-2, 5', concentration 5", "result": 8.46, "unit": "%"},
      {"measurement": "% inhibition Apo pol 5'", "setting": "DRC-2, 5', concentration 10", "result": 25, "unit": "%"},
      {"measurement": "% inhibition Apo pol 5'", "setting": "DRC-2, 5', concentration 20", "result": 36, "unit": "%"},
      {"measurement": "% inhibition Apo pol 5'", "setting": "DRC-2, 5', concentration 40", "result": 51, "unit": "%"},
      {"measurement": "% inhibition Apo pol 5'", "setting": "DRC-2, 5', concentration 80", "result": 55, "unit": "%"},
      {"measurement": "% inhibition Apol 40'", "setting": "DRC-2, 40', concentration 2.5", "result": 9, "unit": "%"},
      {"measurement": "% inhibition Apol 40'", "setting": "DRC-2, 40', concentration 5", "result": 9, "unit": "%"},
      {"measurement": "% inhibition Apol 40'", "setting": "DRC-2, 40', concentration 10", "result": 26, "unit": "%"},
      {"measurement": "% inhibition Apol 40'", "setting": "DRC-2, 40', concentration 20", "result": 40, "unit": "%"},
      {"measurement": "% inhibition Apol 40'", "setting": "DRC-2, 40', concentration 40", "result": 62, "unit": "%"},
      {"measurement": "% inhibition Apol 40'", "setting": "DRC-2, 40', concentration 80", "result": 73, "unit": "%"},
      {"measurement": "% inhibition ApPOL 90'", "setting": "DRC-2, 90', concentration 2.5", "result": 8, "unit": "%"},
      {"measurement": "% inhibition ApPOL 90'", "setting": "DRC-2, 90', concentration 5", "result": 9, "unit": "%"},
      {"measurement": "% inhibition ApPOL 90'", "setting": "DRC-2, 90', concentration 10", "result": 26, "unit": "%"},
      {"measurement": "% inhibition ApPOL 90'", "setting": "DRC-2, 90', concentration 20", "result": 39, "unit": "%"},
      {"measurement": "% inhibition ApPOL 90'", "setting": "DRC-2, 90', concentration 40", "result": 63, "unit": "%"},
      {"measurement": "% inhibition ApPOL 90'", "setting": "DRC-2, 90', concentration 80", "result": 75, "unit": "%"},
      {"measurement": "% inhibition apPOL 180'", "setting": "DRC-2, 180', concentration 2.5", "result": 6, "unit": "%"},
      {"measurement": "% inhibition apPOL 180'", "setting": "DRC-2, 180', concentration 5", "result": 9, "unit": "%"},
      {"measurement": "% inhibition apPOL 180'", "setting": "DRC-2, 180', concentration 10", "result": 24, "unit": "%"},
      {"measurement": "% inhibition apPOL 180'", "setting": "DRC-2, 180', concentration 20", "result": 36, "unit": "%"},
      {"measurement": "% inhibition apPOL 180'", "setting": "DRC-2, 180', concentration 40", "result": 59, "unit": "%"},
      {"measurement": "% inhibition apPOL 180'", "setting": "DRC-2, 180', concentration 80", "result": 74, "unit": "%"},
      {"measurement": "% inhibition Apo pol 5'", "setting": "conc 2.5 (unit not given), 5', DRC-2", "result": 8, "unit": "%"},
      {"measurement": "% inhibition Apol 40'", "setting": "conc 2.5 (unit not given), 40', DRC-2", "result": 9, "unit": "%"},
      {"measurement": "% inhibition ApPOL 90'", "setting": "conc 2.5 (unit not given), 90', DRC-2", "result": 8, "unit": "%"},
      {"measurement": "% inhibition Apol 40'", "setting": "conc 5 (unit not given), 40', DRC-2", "result": 9, "unit": "%"},
      {"measurement": "% inhibition ApPOL 90'", "setting": "conc 5 (unit not given), 90', DRC-2", "result": 9, "unit": "%"},
      {"measurement": "% inhibition apPOL 180'", "setting": "conc 5 (unit not given), 180', DRC-2", "result": 9, "unit": "%"},
      {"measurement": "% inhibition Apol 40'", "setting": "conc 10 (unit not given), 40', DRC-2", "result": 26, "unit": "%"},
      {"measurement": "% inhibition ApPOL 90'", "setting": "conc 10 (unit not given), 90', DRC-2", "result": 26, "unit": "%"},
      {"measurement": "% inhibition Apo pol 5'", "setting": "conc 20 (unit not given), 5', DRC-2", "result": 36, "unit": "%"},
      {"measurement": "% inhibition apPOL 180'", "setting": "conc 20 (unit not given), 180', DRC-2", "result": 36, "unit": "%"},
      {"measurement": "DNA Pol", "setting": "primary screen hit value, DNA Pol (186 hits)", "result": 40}
    ]}
  ]
}
